Each structure is given as a SMILES string.

In test [1] the test system is Sprague-Dawley rats (SD rats). Briefly: oral sucrose loading test, voglibose and repaglinide (Example 3). In kind it is in vivo, rat. Particulars: repaglinide 0.05 mg/kg oral, 2.5 g/kg sucrose load, 0-60 min, average ± standard deviation. How it is done:
An effect of the combined use of the α-glucosidase inhibitor (voglibose) and the non-sulfonylurea insulin secretagogue (repaglinide) was examined in an oral sucrose loading test using Sprague-Dawley rats (SD rats).
SD rats (10-week-old, male) were divided into 4 groups (6 rats per group) to give 1) a control group (distilled water administration), 2) a repaglinide 0.05 mg/kg administration group, and 3) a voglibose 0.1 mg/kg and repaglinide 0.05 mg/kg combined administration group. After fasting overnight, every rat was given the above-mentioned drugs by single or combined oral administration, and successively given 2.5 g/kg of a sucrose solution by oral administration. The blood was drawn from the rat tail vein before administration of the sucrose solution and 15, 30 and 60 min after the administration, and the plasma glucose level was measured. The plasma glucose level was measured by an enzymatic method using an L type Wako Glu2 (Wako Pure Chemical Industries, Ltd.), and the plasma insulin level was measured by radio immunoassay using Insulotech-Mochida (Mochida Pharmaceutical Co., Ltd.).
Increase in the plasma glucose and plasma insulin areas was calculated by a trapezoid method (Odaka et al., J. Nutr. Sci. Vitaminol., vol. 38, p. 37 (1992)) using the plasma glucose and plasma insulin levels at each time point.

In test [2] the test system is Sprague-Dawley rats (SD rats). Nature of the test: oral sucrose loading test, voglibose and nateglinide (Example 2). The conditions noted are these: 2.5 g/kg sucrose load, 0-120 min, average ± standard deviation. In kind it is in vivo, rat. As for the experimental part:
An effect of the combined use of the α-glucosidase inhibitor (voglibose) and non-sulfonylurea insulin secretagogue (nateglinide) was examined in an oral sucrose loading test using Sprague-Dawley rats (SD rats). SD rats (7-week-old, male) were divided into 6 groups (6 rats per group) to give 1) a control group (distilled water administration), 2) a voglibose 0.1 mg/kg administration group, 3) a nateglinide 10 or 30 mg/kg administration group, and 4) a voglibose 0.1 mg/kg and nateglinide 10 or 30 mg/kg combined administration group. After fasting overnight, every rat was given the above-mentioned drugs by single or combined oral administration, and successively given 2.5 g/kg sucrose solution by oral administration. […] The plasma glucose level was measured by an enzymatic method using an L type Wako Glu2 (Wako Pure Chemical Industries, Ltd.). Increase in the plasma glucose area was calculated by a trapezoid method (Odaka et al., J. Nutr. Sci. Vitaminol., vol. 38, p. 37 (1992) using the plasma glucose level at each time point. The results are shown in Table 1.

As to `CCOc1cc(CC(=O)N[C@@H](CC(C)C)c2ccccc2N2CCCCC2)ccc1C(=O)O` [repaglinide], in test [1], the “Increase in plasma glucose area” value came out at 6 ± 13 mg·h/dL and the “Increase in plasma insulin area” value amounted to 432 ± 117 μU · h/ml.
Turning to `CC(C)[C@H]1CC[C@H](C(=O)N[C@H](Cc2ccccc2)C(=O)O)CC1` [nateglinide], the figures for the “Increase in plasma glucose area” value in test [2] (nateglinide 10 mg/kg oral) and in test [2] (nateglinide 30 mg/kg oral) were 65 ± 28 mg·h/dL and 54 ± 15 mg·h/dL, respectively.
On to `OCC(CO)N[C@H]1C[C@](O)(CO)[C@@H](O)[C@H](O)[C@H]1O` [voglibose], for which the “Increase in plasma glucose area” value in test [2] (voglibose 0.1 mg/kg oral) was 30 ± 10 mg·h/dL.
